According to patent US4261986A, “4-Halo etianic acids and derivatives thereof” (Syntex (U.S.A.) Inc., priority 1979, dated 1981):

Columns and labels:
thymus gland = conditions: rat, in vivo, sc
Experimental: The compounds to be tested for thymolytic activity including a hydrocortisone (HC) standard, were prepared in three or more concentrations by suspension in a sodium carboxymethyl-cellulose vehicle. Animals received the test materials by subcutaneous injection of 0.5 ml of the suspension on each of three successive days. Four hours following the final injection, the rats were sacrificed and the thymus gland of each animal removed and weighed. These weights are then employed to establish dose-response graphs by methods known in the art.

[1] = therapeutic advantage (topical potency versus systemic activity); format: in vivo; conditions: in words
Experimental: The topical anti-inflammatory activity potential for each compound was assayed using a modified Stoughton/-McKenzie vaso-constriction assay in humans, V. A. Place, et al, Arch. […]. 101, 531-537 (1970). Eight normal adult human subjects were treated on each forearm by topical administration with alcohol solutions containing 1×10^-5 and 1×10^-6 g/ml of each of the compounds to provide 64 total test sites for each compound in a series (32 for each concentration). Areas of the subjects' forearms were outlined by a rubber stamp grid coated with silicone grease, and 10 microliters are applied per 7×7 mm square site. After the preparations have dried, the areas on each forearm are covered with Saran® wrap and the margins sealed with tape. The occlusive wrap is removed after 18 hours. Twenty-four hours after application, the presence of vasoconstriction is noted by visual examination, and expressed as the number of sites responding (vasoconstriction). Fluocinolone acetonide is used as a standard. Also, the intensity of the vasoconstriction is scorred on a 0, 1, 2 scale, 2 being the most intense reaction. Both scores are used in constructing dose-response graphs according to methods set forth in an article by V. A. Place et al, infra. […]

[2] = test system: normal adult human subjects (vasoconstriction); assay: topical anti-inflammatory activity, modified Stoughton/McKenzie vasoconstriction assay in humans; format: in vivo
Source text: The compounds of Formula (I) where R is alkyl of 1-6 carbon atoms, haloalkyl of 1-6 carbons or phenyl or benzyl optionally substituted on the phenyl ring with alkyl of 1-4 carbons, alkoxy of 1-4 carbons or halo and R^1, R^2, X^1, X^2, X^3 and X^4 are as defined in the broadest aspect of the invention are useful for the relief of inflamed conditions in mammals, and more specifically are useful for relieving inflammatory manifestations of corticosteroid responsive dermatoses. Initial approximation of anti-inflammatory activity is done by following the procedure of McKenzie, S. W. and Stoughton, R. B., "Methods for Comparing Percutaneous Absorption of Steroids" Arch Dermat, 86, (1962) or modifications thereof.
The topical anti-inflammatory activity potential for each compound was assayed using a modified Stoughton/-McKenzie vaso-constriction assay in humans, V. A. Place, et al, Arch. Dermat. 101, 531-537 (1970). Eight normal adult human subjects were treated on each forearm by topical administration with alcohol solutions containing 1×10^-5 and 1×10^-6 g/ml of each of the compounds to provide 64 total test sites for each compound in a series (32 for each concentration). […] Twenty-four hours after application, the presence of vasoconstriction is noted by visual examination, and expressed as the number of sites responding (vasoconstriction). […]

Swiss-Webster mice = assay: LD50, single subcutaneous injection, mortality observed for 21 days; format: in vivo, mouse; conditions: six mice, 25 mg/kg subcutaneous, 21 days
Experimental: (§1) Six Swiss-Webster mice (Simonsen) each weighing about 25 grams, were injected subcutaneously with a solution of methyl 6α,9α-difluoro-11β-hydroxy-16α-methyl-3-oxo-17α-n-propionyloxyandrosta-1,4-diene 17β-thiocarboxylate in […] having a concentration of 10 ml/kg. The dosage was 25 mg/kg or about 0.625 mg/mouse. The mice were observed daily for mortality for 21 days.

[3] = as above; format: in vivo, mouse; conditions: mouse, in vivo, sc; Swiss-Webster mice, subcutaneous, 21 days observation
Experimental: as §1

CCC(=O)O[C@]1(C(=O)OC)[C@H](C)C[C@H]2[C@@H]3C[C@H](F)C4=C(F)C(=O)C=C[C@]4(C)[C@@]3(F)[C@@H](O)C[C@@]21C [methyl 4,6α,9α-trifluoro-11β-hydroxy-16α-methyl-3-oxo-17α-propionyloxyandrosta-1,4-diene 17β-carboxylate]
systemic activity relative to HC (thymus gland): 10 times HC | thymolytic activity (thymus gland): slight activity in the dose range of hydrocortisone | therapeutic advantage [1]: distinct therapeutic advantage | topical potency relative to FA ([2]; alcohol solutions 1×10^-5 and 1×10^-6 g/ml, fluocinolone acetonide standard): 1-2 time FA | topical potency ([2]; in words): excellent topical potency

CCC(=O)O[C@]1(C(=O)SC)[C@H](C)C[C@H]2[C@@H]3C[C@H](F)C4=CC(=O)C=C[C@]4(C)[C@@]3(F)[C@@H](O)C[C@@]21C [methyl 6α,9α-difluoro-11β-hydroxy-16α-methyl-3-oxo-17α-n-propionyloxyandrosta-1,4-diene 17β-thiocarboxylate]
mortality (Swiss-Webster mice): One mouse died | LD50 at 504 h [3]: > 25 mg/kg
